The record followed here is patent publication US20250154141A1 (University of Florida Research Foundation, Incorporated, priority 2021, published 2025).

Read-outs that look alike come from different tables or passages of the source.

Holding throughout (type): cell-based
Test [1] has as its system human platelets. The test can be described thus: Platelet toxicity assay (MTS viability). As to conditions: for IC50: 48 h, human platelets, read-out: Platelets 48 h IC50; for Platelets/MOLT-4 IC50 Fold change / PLT/MOLT-4 IC50 Fold Change: ratio of platelet IC50 to MOLT-4 IC50. The method, then:
Platelet-rich plasma (PRP) was purchased from Life South Community Blood Centers (Gainesville, FL, USA). PRP was transferred into a 50 mL tube containing 5 mL of the acid citrate buffer (Cat. No. sc-214744, Santa Cruz Biotechnology). To prevent clotting, prostaglandin E1 (PGE1, Cat. No. sc-201223A, Santa Cruz Biotechnology, Dallas, TX, USA) and apyrase (Cat. No. A6237, Sigma-Aldrich, St. Louis, MO, USA) were added to final concentrations of […] and 0.2 U/mL, respectively. After gently mixing the solution, platelets were pelleted by centrifugation at 1200 g for 10 min without break. Pelleted platelets were gently washed without disturbing platelets using 2 mL of HEPES Tyrode's buffer (Cat. No. PY-921WB, Boston BioProducts, Ashland, MA, USA) containing […] PGE1 and 0.2 U/mL apyrase. After washing, pellets were gently suspended in 10 mL of HEPES Tyrode's buffer containing […] PGE1 and 0.2 U/mL apyrase. Then, the platelet number was counted using a HEMAVET 950FS hematology analyzer (Drew Scientific, Inc., Oxford, CT, USA). For viability assays, the platelet number was adjusted to 2×10^8/mL in HEPES Tyrode's buffer containing […] PGE1 and 0.2 U/mL apyrase. Each treatment was given in 2 mL of the platelet suspension in 15 mL polypropylene tubes. The tubes were placed on a rotating platform at room temperature, and the viability of platelets was measured after 48 h treatment by using the MTS reagent (Cat. No. G1111, Promega, Madison, WI, USA). The data were analyzed by the GraphPad Prism 7 software for the calculation of IC50 values.

In test [2] the test system is RS4; 11. The test can be described thus: Cell viability assay (MTS) in RS4; 11 cells. The method, then:
(§1) Acute lymphoblastic leukemia cells (MOLT-4 and RS4; 11) were incubated with increasing concentrations of Bcl-xL degraders for 48 h. Cell viability was measured by tetrazolium-based MTS assay.

Test [3] concerns MOLT-4. The test can be described thus: Cell viability assay (MTS) in MOLT-4 cells. The method, then: as §1
Where [4] appears, read: Homo sapiens, Platelet, Table 3, mean of two independent experiments in triplicates.
Where [5] appears, read: Homo sapiens, Platelet, Table 5.
[6] abbreviates: Homo sapiens, RS4-11, Table 2, 48 hr, MTS, read-out: Anti-Cancer Activity IC50 (48 hr) RS4, 11.
Where [7] appears, read: Homo sapiens, RS4-11, Table 5, 48 h, read-out: RS4 48 h IC50.
Setting [8] is: Homo sapiens, MOLT-4, Table 2, 48 hr, MTS, read-out: Anti-Cancer Activity IC50 (48 hr) MOLT-4.
Where [9] appears, read: Homo sapiens, MOLT-4, Table 3, 48 h, mean of two independent experiments in triplicates, read-out: MOLT-4 48 h IC50.
Setting [10] is: Homo sapiens, Platelet, Table 4.
[11] abbreviates: Homo sapiens, RS4-11, Table 4, 48 h, read-out: RS4 48 h IC50.
The mark [12] stands for this setting: Homo sapiens, MOLT-4, Table 4, 48 h, read-out: MOLT-4 48 h IC50.

One may read the IC50 as the concentration that gives 50% inhibition. `Cc1ncsc1-c1ccc([C@H](C)NC(=O)[C@@H]2C[C@@H](O)CN2C(=O)[C@@H](NC(=O)CCCCCCC(=O)N2CCN(CC3(C)CCC(c4ccc(Cl)cc4)=C(CN4CCN(c5ccc(C(=O)NS(=O)(=O)c6ccc(N[C@H](CCN7CCCCC7)CSc7ccccc7)c([N+](=O)[O-])c6)cc5)CC4)C3)CC2)C(C)(C)C)cc1` (stereo partly drawn) [Compound 39, (2S,4R)-1-((2S)-2-(8-(4-((4′-chloro-4-methyl-6-((4-(4-(((3-nitro-4-(((R)-1-(phenylthio)-4-(piperidin-1-yl)butan-2-yl)amino)phenyl)sulfonyl)carbamoyl)phenyl)piperazin-1-yl)methyl)-2,3,4,5-tetrahydro-[1,1′-biphenyl]-4-yl)methyl)piperazin-1-yl)-8-oxooctanamido)-3,3-dimethylbutanoyl)-4-hydroxy-N—((S)-1-(4-(4-methylthiazol-5-yl)phenyl)ethyl)pyrrolidine-2-carboxamide]: the IC50 in test [1] (setting [4]) is 4570 nM; in test [1] (setting [5]), 4570 nM; in test [2] (setting [6]), < 20 nM; in test [2] (setting [7]) it was 8.4 nM; in test [3] (setting [8]), < 20 nM; in test [3] (setting [9]), 14.3 nM. Further, the “Platelets/MOLT-4 IC50 Fold change” value in test [1] (Table 3) came out at 319.

On to `Cc1ncsc1-c1ccc([C@H](C)NC(=O)[C@@H]2C[C@@H](O)CN2C(=O)[C@@H](NC(=O)CCCCCNC(=O)c2ccc(N3CCN(CC4(C)CCC(c5ccc(Cl)cc5)=C(CN5CCN(c6ccc(C(=O)NS(=O)(=O)c7ccc(N[C@H](CCN8CCOCC8)CSc8ccccc8)c(S(=O)(=O)C(F)(F)F)c7)cc6)CC5)C4)CC3)nc2)C(C)(C)C)cc1` (stereo partly drawn) [Compound 3], for which the IC50 in test [1] (setting [10]) is 4900 nM; in test [2] (setting [6]), 20 to 100 nM; in test [2] (setting [11]) it was 44.9 nM; in test [3] (setting [8]), < 20 nM; in test [3] (setting [12]) it was 9.6 nM. Besides, in test [1] (Table 4), the “PLT/MOLT-4 IC50 Fold Change” value turned out to be 510.

Consider `Cc1ncsc1-c1ccc([C@H](C)NC(=O)[C@@H]2C[C@@H](O)CN2C(=O)[C@@H](NC(=O)CCCCC(=O)N2CCC(C3CCN(CC4(C)CCC(c5ccc(Cl)cc5)=C(CN5CCN(c6ccc(C(=O)NS(=O)(=O)c7ccc(N[C@H](CCN8C[C@H]9C[C@@H]8CO9)CSc8ccccc8)c(S(=O)(=O)C(F)(F)F)c7)cc6)CC5)C4)CC3)CC2)C(C)(C)C)cc1` (stereo partly drawn) [Compound 69], for which the IC50 in test [1] (setting [5]) is 157 nM; in test [2] (setting [6]), < 20 nM; in test [2] (setting [7]), 3.7 nM; in test [3] (setting [8]) it was < 20 nM; in test [3] (Homo sapiens, MOLT-4, Table 5, 48 h, read-out: MOLT-4 48 h IC50), 1.9 nM.

Consider `Cc1ncsc1-c1ccc([C@H](C)NC(=O)[C@@H]2C[C@@H](O)CN2C(=O)[C@@H](NC(=O)CCCCCNC(=O)c2ccc(N3CCN(CC4(C)CCC(c5ccc(Cl)cc5)=C(CN5CCN(c6ccc(C(=O)NS(=O)(=O)c7ccc(N[C@H](CCN8CCOCC8)CSc8ccccc8)c(S(=O)(=O)C(F)(F)F)c7)cc6)CC5)C4)CC3)cc2)C(C)(C)C)cc1` (stereo partly drawn) [Compound 12, (2S,4R)-1-((2S)-2-(6-(4-(4-((4′-chloro-4-methyl-6-((4-(4-(((4-(((R)-4-morpholino-1-(phenylthio)butan-2-yl)amino)-3-((trifluoromethyl)sulfonyl)phenyl)sulfonyl)carbamoyl)phenyl)piperazin-1-yl)methyl)-2,3,4,5-tetrahydro-[1,1′-biphenyl]-4-yl)methyl)piperazin-1-yl)benzamido)hexanamido)-3,3-dimethylbutanoyl)-4-hydroxy-N—((S)-1-(4-(4-methylthiazol-5-yl)phenyl)ethyl)pyrrolidine-2-carboxamide], for which the IC50 is 2160 nM in test [1] (setting [4]), 20 to 100 nM in test [2] (setting [6]), < 20 nM in test [3] (setting [8]) and 17.5 nM in test [3] (setting [9]). Also, the “Platelets/MOLT-4 IC50 Fold change” value in test [1] (Table 3) is on record as 123.

`Cc1ncsc1-c1ccc([C@H](C)NC(=O)[C@@H]2C[C@@H](O)CN2C(=O)[C@@H](NC(=O)CCCCCCC(=O)N2CCN(C[C@]3(C)CCC(c4ccc(Cl)cc4)=C(CN4CCN(c5ccc(C(=O)NS(=O)(=O)c6ccc(N[C@H](CCN7CCOCC7)CSc7ccccc7)c(S(=O)(=O)C(F)(F)F)c6)cc5)CC4)C3)CC2)C(C)(C)C)cc1` [PZ753B, reference compound]: the IC50 in test [1] (setting [10]) came to 1050 nM; in test [2] (setting [11]) it was 5.8 nM; in test [3] (setting [12]), 6.9 nM. Further, in test [1] (Table 4), the “PLT/MOLT-4 IC50 Fold Change” value amounted to 152.

`Cc1ncsc1-c1ccc([C@H](C)NC(=O)[C@@H]2C[C@@H](O)CN2C(=O)[C@@H](NC(=O)CCCCCCC(=O)N2CCN(CC3(C)CCC(c4ccc(Cl)cc4)=C(CN4CCN(c5ccc(C(=O)NS(=O)(=O)c6ccc(N[C@H](CCN(C)CCO)CSc7ccccc7)c([N+](=O)[O-])c6)cc5)CC4)C3)CC2)C(C)(C)C)cc1` (stereo partly drawn) [Compound 41, (2S,4R)-1-((2S)-2-(8-(4-((4′-chloro-6-((4-(4-(((4-(((R)-4-((2-hydroxyethyl)(methyl)amino)-1-(phenylthio)butan-2-yl)amino)-3-nitrophenyl)sulfonyl)carbamoyl)phenyl)piperazin-1-yl)methyl)-4-methyl-2,3,4,5-tetrahydro-[1,1′-biphenyl]-4-yl)methyl)piperazin-1-yl)-8-oxooctanamido)-3,3-dimethylbutanoyl)-4-hydroxy-N—((S)-1-(4-(4-methylthiazol-5-yl)phenyl)ethyl)pyrrolidine-2-carboxamide]: the IC50 is 4900 nM in test [1] (setting [4]), < 20 nM in test [2] (setting [6]), 20 to 100 nM in test [3] (setting [8]) and 38.1 nM in test [3] (setting [9]). For the same compound, the “Platelets/MOLT-4 IC50 Fold change” value in test [1] (Table 3) came out at 128.

Turning to `Cc1ncsc1-c1ccc([C@H](C)NC(=O)[C@@H]2C[C@@H](O)CN2C(=O)[C@@H](NC(=O)CCCCCCC(=O)N2CCN(C[C@]3(C)CCC(c4ccc(Cl)cc4)=C(CN4CCN(c5ccc(C(=O)NS(=O)(=O)c6ccc(N[C@H](CCN(C)CCO)CSc7ccccc7)c(S(=O)(=O)C(F)(F)F)c6)cc5)CC4)C3)CC2)C(C)(C)C)cc1` [Compound 62], the IC50 in test [1] (setting [10]) is > 10000 nM; in test [2] (setting [6]), < 20 nM; in test [2] (setting [11]), < 7 nM; in test [3] (setting [8]) it was < 20 nM; in test [3] (setting [12]), 21 nM.

Turning to `Cc1ncsc1-c1ccc([C@H](C)NC(=O)[C@@H]2C[C@@H](O)CN2C(=O)[C@@H](NC(=O)CCCCCCC(=O)N2CCN(CC3(C)CCC(c4ccc(Cl)cc4)=C(CN4CCN(c5ccc(C(=O)NS(=O)(=O)c6ccc(N[C@H](CCN7CCOCC7)CSc7ccccc7)c(S(=O)(=O)C(F)(F)F)c6)cc5)CC4)C3)CC2)C(C)(C)C)cc1` (stereo partly drawn) [PP18319C8], the IC50 is 1640 nM in test [1] (setting [10]), 18.7 nM in test [2] (setting [11]) and 17.4 nM in test [3] (setting [12]). Also, in test [1] (Table 4), the “PLT/MOLT-4 IC50 Fold Change” value was determined as 94.

For `Cc1ncsc1-c1ccc([C@H](C)NC(=O)[C@@H]2C[C@@H](O)CN2C(=O)[C@@H](NC(=O)CCCCCC(=O)N2CCN(CC[C@H](CSc3ccccc3)Nc3ccc(S(=O)(=O)NC(=O)c4ccc(N5CCN(CC6=C(c7ccc(Cl)cc7)CCC(C)(C)C6)CC5)cc4)cc3S(=O)(=O)C(F)(F)F)CC2)C(C)(C)C)cc1` [DT2216, reference compound], the IC50 in test [1] (Table 4) is > 10000 nM; in test [2] (Table 4, 48 h, read-out: RS4 48 h IC50) it was 180 to 230 nM; in test [3] (Table 4, 48 h, read-out: MOLT-4 48 h IC50) it was 50 to 80 nM. The “PLT/MOLT-4 IC50 Fold Change” value in test [1] (Table 4) was >150.
